Assay results: patent US11104619B2, “Mixture for treating fertilizers containing urea” (EuroChem Agro GmbH, priority 2015, dated 2021)
Where two headings read alike, the source gives them in different places.

Key:
nitrification [1] = assay: Soil incubation trial: nitrate formed from applied urea N; details: for Nitrate, % of the urea applied (13 mg N): Filder loam, 20° C., label gives UI/NI fraction of recommended rate
Description: % of the urea applied (13 mg N)

urease = details: for Ammonia emission, % of the urea applied (77 mg N): Filder loam, 20° C., label gives UI/NI fraction of recommended rate
Description: Screening trials were conducted to evaluate the effect of DMPSA and NBPT in the inhibition of urease and inhibition of nitrification, and to find suitable quantities for use. Serving for this purpose was a two-factorial trial design including an unfertilized control sample. For the urease inhibitor NBPT and for the nitrification inhibitor DMPSA, in each case 0%, 33%, 66% and 100% of the application rates recommended for the individual compounds when used alone were used (in this example, 0.6 g of NBPT per kg of urea and, respectively, 3.6 g of DMPSA per kg of urea), giving 16 trials (0%-0% to 100%-100%), in addition to the unfertilized control sample.
Urea fertilizer was delivered in an amount of 200 kg nitrogen per ha, corresponding to 0.51 mg of urea nitrogen per g of soil. The soil used was Filder loam with a pH of 6.8. The incubation trials were carried out at 20° C. For the investigation of trace gases, air supply was passed first through a gas sample, then through a 250 ml capacity glass bottle containing 150 g of soil, subsequently through a gas sample for the outgoing air and through an acid trap, in order, for example, to determine amounts of ammonia. For the measurement of nitrogen, about 20 g of soil were incubated; for the measurement of urea, about 5 g of soil.

nitrification [2] = assay: Soil incubation trial: recovery of applied urea N as ammonium; details: for percentage recovery in the form of ammonium, % of applied urea (13 mg N): 28 days after application, Filder loam pH 6.8, 20° C., 200 kg urea N/ha, label gives UI/NI fraction of recommended rate (0.6 g NBPT, 3.6 g DMPSA per kg urea)
Description: % of applied urea (13 mg N)
A determination was carried out 28 days after application of the urea, with the percentage recovery in the form of ammonium being reported.

nitrification [3] = assay: Soil incubation trial: cumulative laughing gas (N2O-N) emission; details: for N2O—N cumulative / N2O—N cumulative, % of appl.: 77 mg N applied; for N2O—N cumulative, % of appl.: cumulative over 28 days

## Cc1cn(C(CC(=O)O)C(=O)O)nc1C (stereo not drawn) [DMPSA, 2-(N-3,4-dimethylpyrazole)succinic acid]
Nitrification [1]; 33% of the DMPSA, entire period
  inhibition of nitrification (nitrate results): sufficient to inhibit nitrification during the entire period
Nitrification [1]; 5 days after application, listed as UI 0 NI 1
  Nitrate, % of the urea applied (13 mg N): 6%
Nitrification [1]; 5 days after application, listed as UI 0 NI ⅓
  Nitrate, % of the urea applied (13 mg N): 4%
Nitrification [1]; 5 days after application, listed as UI 0 NI ⅔
  Nitrate, % of the urea applied (13 mg N): 5%
Nitrification [1]; 28 days after application, listed as UI 0 NI 1
  Nitrate, % of the urea applied (13 mg N): 14%
Nitrification [1]; 28 days after application, listed as UI 0 NI ⅓
  Nitrate, % of the urea applied (13 mg N): 20%
Nitrification [1]; 28 days after application, listed as UI 0 NI ⅔
  Nitrate, % of the urea applied (13 mg N): 17%
urease; 4 days after application, listed as UI 0 NI 1
  Ammonia emission, % of the urea applied (77 mg N): 0.7%
urease; 4 days after application, listed as UI 0 NI ⅓
  Ammonia emission, % of the urea applied (77 mg N): 0.6%
urease; 4 days after application, listed as UI 0 NI ⅔
  Ammonia emission, % of the urea applied (77 mg N): 0.9%
urease; 9 days after application, listed as UI 0 NI 1
  Ammonia emission, % of the urea applied (77 mg N): 2.2%
urease; 9 days after application, listed as UI 0 NI ⅓
  Ammonia emission, % of the urea applied (77 mg N): 3.7%
urease; 9 days after application, listed as UI 0 NI ⅔
  Ammonia emission, % of the urea applied (77 mg N): 2.4%
urease; addition of DMPSA
  effect of addition on ammonia emissions: causes the ammonia emissions to rise
Nitrification [2]; 33% of DMPSA, throughout the trial
  inhibition of nitrification (ammonium results): sufficient to inhibit nitrification throughout the trial
Nitrification [2]; listed as UI 0 NI 1
  percentage recovery in the form of ammonium, % of applied urea (13 mg N): 69%
Nitrification [2]; listed as UI 0 NI ⅓
  percentage recovery in the form of ammonium, % of applied urea (13 mg N): 62%
Nitrification [2]; listed as UI 0 NI ⅔
  percentage recovery in the form of ammonium, % of applied urea (13 mg N): 63%
Nitrification [3]; 0 days after appl., 150 g soil
  N2O—N cumulative: 0 μg N2O—N Bottle^1
Nitrification [3]; 33% of DMPSA
  emissions of laughing gas: drastically reduces the emissions of laughing gas
Nitrification [3]; 0.5 days after appl.
  N2O—N cumulative: 0 μg N2O—N Bottle^1
Nitrification [3]; 1 day after appl., listed as UI-0_NI-1
  N2O—N cumulative: 3 μg N2O—N Bottle^1
Nitrification [3]; 1 day after appl., listed as UI-0_NI-2
  N2O—N cumulative: 1 μg N2O—N Bottle^1
Nitrification [3]; 1 day after appl., listed as UI-0_NI-3
  N2O—N cumulative: 1 μg N2O—N Bottle^1
Nitrification [3]; 2 days after appl., listed as UI-0_NI-1
  N2O—N cumulative: 3 μg N2O—N Bottle^1
Nitrification [3]; 2 days after appl., listed as UI-0_NI-2
  N2O—N cumulative: 1 μg N2O—N Bottle^1
Nitrification [3]; 2 days after appl., listed as UI-0_NI-3
  N2O—N cumulative: 1 μg N2O—N Bottle^1
Nitrification [3]; 3 days after appl., listed as UI-0_NI-1
  N2O—N cumulative: 4 μg N2O—N Bottle^1
Nitrification [3]; 3 days after appl., listed as UI-0_NI-2
  N2O—N cumulative: 2 μg N2O—N Bottle^1
Nitrification [3]; 3 days after appl., listed as UI-0_NI-3
  N2O—N cumulative: 1 μg N2O—N Bottle^1
Nitrification [3]; 4 days after appl., listed as UI-0_NI-1
  N2O—N cumulative: 4 μg N2O—N Bottle^1
Nitrification [3]; 4 days after appl., listed as UI-0_NI-2
  N2O—N cumulative: 2 μg N2O—N Bottle^1
Nitrification [3]; 4 days after appl., listed as UI-0_NI-3
  N2O—N cumulative: 2 μg N2O—N Bottle^1
Nitrification [3]; 5 days after appl., listed as UI-0_NI-1
  N2O—N cumulative: 4 μg N2O—N Bottle^1
Nitrification [3]; 5 days after appl., listed as UI-0_NI-2
  N2O—N cumulative: 2 μg N2O—N Bottle^1
Nitrification [3]; 5 days after appl., listed as UI-0_NI-3
  N2O—N cumulative: 2 μg N2O—N Bottle^1
Nitrification [3]; 6 days after appl., listed as UI-0_NI-1
  N2O—N cumulative: 5 μg N2O—N Bottle^1
Nitrification [3]; 6 days after appl., listed as UI-0_NI-2
  N2O—N cumulative: 2 μg N2O—N Bottle^1
Nitrification [3]; 6 days after appl., listed as UI-0_NI-3
  N2O—N cumulative: 2 μg N2O—N Bottle^1
Nitrification [3]; 8 days after appl., listed as UI-0_NI-1
  N2O—N cumulative: 6 μg N2O—N Bottle^1
Nitrification [3]; 8 days after appl., listed as UI-0_NI-2
  N2O—N cumulative: 3 μg N2O—N Bottle^1
Nitrification [3]; 8 days after appl., listed as UI-0_NI-3
  N2O—N cumulative: 3 μg N2O—N Bottle^1
Nitrification [3]; 10 days after appl., listed as UI-0_NI-1
  N2O—N cumulative: 5 μg N2O—N Bottle^1
Nitrification [3]; 10 days after appl., listed as UI-0_NI-2
  N2O—N cumulative: 3 μg N2O—N Bottle^1
Nitrification [3]; 10 days after appl., listed as UI-0_NI-3
  N2O—N cumulative: 2 μg N2O—N Bottle^1
Nitrification [3]; 12 days after appl., listed as UI-0_NI-1
  N2O—N cumulative: 5 μg N2O—N Bottle^1
Nitrification [3]; 12 days after appl., listed as UI-0_NI-2
  N2O—N cumulative: 3 μg N2O—N Bottle^1
Nitrification [3]; 12 days after appl., listed as UI-0_NI-3
  N2O—N cumulative: 3 μg N2O—N Bottle^1
Nitrification [3]; 14 days after appl., listed as UI-0_NI-1
  N2O—N cumulative: 6 μg N2O—N Bottle^1
Nitrification [3]; 14 days after appl., listed as UI-0_NI-2
  N2O—N cumulative: 3 μg N2O—N Bottle^1
Nitrification [3]; 14 days after appl., listed as UI-0_NI-3
  N2O—N cumulative: 3 μg N2O—N Bottle^1
Nitrification [3]; 17 days after appl., listed as UI-0_NI-1
  N2O—N cumulative: 6 μg N2O—N Bottle^1
Nitrification [3]; 17 days after appl., listed as UI-0_NI-2
  N2O—N cumulative: 3 μg N2O—N Bottle^1
Nitrification [3]; 17 days after appl., listed as UI-0_NI-3
  N2O—N cumulative: 3 μg N2O—N Bottle^1
Nitrification [3]; 18 days after appl., listed as UI-0_NI-1
  N2O—N cumulative: 5 μg N2O—N Bottle^1
Nitrification [3]; 18 days after appl., listed as UI-0_NI-2
  N2O—N cumulative: 1 μg N2O—N Bottle^1
Nitrification [3]; 18 days after appl., listed as UI-0_NI-3
  N2O—N cumulative: 2 μg N2O—N Bottle^1
Nitrification [3]; 20 days after appl., listed as UI-0_NI-1
  N2O—N cumulative: 5 μg N2O—N Bottle^1
Nitrification [3]; 20 days after appl., listed as UI-0_NI-2
  N2O—N cumulative: 2 μg N2O—N Bottle^1
Nitrification [3]; 20 days after appl., listed as UI-0_NI-3
  N2O—N cumulative: 2 μg N2O—N Bottle^1
Nitrification [3]; 22 days after appl., listed as UI-0_NI-1
  N2O—N cumulative: 7 μg N2O—N Bottle^1
Nitrification [3]; 22 days after appl., listed as UI-0_NI-2
  N2O—N cumulative: 3 μg N2O—N Bottle^1
Nitrification [3]; 22 days after appl., listed as UI-0_NI-3
  N2O—N cumulative: 2 μg N2O—N Bottle^1
Nitrification [3]; 24 days after appl., listed as UI-0_NI-1
  N2O—N cumulative: 7 μg N2O—N Bottle^1
Nitrification [3]; 24 days after appl., listed as UI-0_NI-2
  N2O—N cumulative: 4 μg N2O—N Bottle^1
Nitrification [3]; 24 days after appl., listed as UI-0_NI-3
  N2O—N cumulative: 3 μg N2O—N Bottle^1
Nitrification [3]; 28 days after appl., listed as UI-0_NI-1
  N2O—N cumulative: 8 μg N2O—N Bottle^1
Nitrification [3]; 28 days after appl., listed as UI-0_NI-2
  N2O—N cumulative: 6 μg N2O—N Bottle^1
Nitrification [3]; 28 days after appl., listed as UI-0_NI-3
  N2O—N cumulative: 4 μg N2O—N Bottle^1
Nitrification [3]; listed as UI-0_NI-1
  N2O—N cumulative, % of appl.: 0.01 % of appl.
Nitrification [3]; listed as UI-0_NI-2
  N2O—N cumulative, % of appl.: 0.01 % of appl.
Nitrification [3]; listed as UI-0_NI-3
  N2O—N cumulative, % of appl.: 0.00 % of appl.
